Consider 8 compounds from US20240254096A1, “ULTRAVIOLET AND VISIBLE RADIATION ABSORBING COMPOUNDS” (ELKIMIA INC., priority 2021, published 2024).

This experiment is described as follows: SPF in vitro / UVA PF from UV transmittance through thin film on PMMA plates. To be noted: for SPF in vitro mean / UV APF: 0.75 mg/cm^2; for SPF P / UV APF P: P (after irradiation, 800 J/m^2-eff). The method, then:
For determining the SPF in vitro value, the protection performance of compounds according to certain embodiments of the present technology, against erythemally-effective UV radiation, largely confined to the UVB (290-320 nm) and short-wavelength UVA (320-340) region, was calculated from the measured in vitro transmittance. The in vitro UVA PF, the UVA protection (320-400 nm), was calculated from the measured in vitro transmittance after irradiation. The Critical Wavelength Value was defined as the wavelength at which the integral of the spectral absorbance curve reached 90% of the integral over the UV spectrum from 290 to 400 nm. It has been settled that this value must be equal or over 370 nm so as to classify the product as broad-spectrum. The study consisted in a comparative assay of non-treated plates against plates treated with each of the compounds and was based on the evaluation of UV-transmittance through a thin film of sunscreen sample spread on a roughened substrate, before an after exposure to a controlled dose of UV radiation from a UV source. A Kontron 933 spectrophotometer equipped with a UV source, an integrating sphere and a monochromatic light able to deliver a flow of energy between 290 and 400 nm was used. The transmittance values were measured at 1 nm intervals. A 10-4 precision laboratory balance was used to control deposited product weight. The irradiation was provided by Sunset Atlas CPS+ with standard filter. Temperature regulation of the equipment was done in the range of 25-35° C. A pre-irradiation dose of 4 times 200 J/m^2-eff (800 J/m^2-eff) was delivered. The substrate was the material to which the sunscreen product was applied. Polymethylmethacrylate (PMMA) plates were used and were roughened on one side to a three-dimensional surface topography of 5 micrometers. Each compound was weighted and applied evenly to the PMMA plate with a 2-phase spreading to achieve a 0.75 mg/cm^2 weight/surface ratio. Spreading was performed with a light spreading move for approximately 30 seconds followed by spreading with greater pressure for approximately 30 seconds. The resulting sample was left to equilibrate for 15 minutes in the dark at room temperature to ensure a self-leveling of the formula. To account for lack of photostability, a pre-irradiation was necessary. The pre-irradiation dose was 4 minimal erythema dose (MEDs), equivalent to 800 J/m^2-eff. Five measurements of spectral irradiance transmitted for each wavelength through the PMMA plate covered with the sunscreen product were obtained after pre-irradiation of the sunscreen product [P1( ), P2( ), P3( ), P4( ) and P5( )]. For each compound, mean absorbance values were determined from at least three individual PMMA plates. To validate the accuracy of the results, a control product with an established SPF of 18-20, Lot 11T0313 was tested simultaneously with the compounds. SPF in vitro was calculated for each plate using the Colipa 2011 equation.

As for `CCOC(=O)CNC1=C/C(=N/c2ccc(/N=N/c3ccccc3)cc2)CC(C)(C)C1` [Formula 33], the “SPF Change %” value came out at 81%, the ΔSPF turned out to be 16, the “SPF in vitro mean” value is reported as 36.23 and the “UV APF” value is 4.26. The “SPF P” value is 33.16 and the “UV APF P” value is listed as 4.36.

Consider `CCOC(=O)CNC1=CC(Nc2ccc(OC)cc2)CC(C)(C)C1` (stereo not drawn) [Formula 72], for which the “SPF Change %” value was 18%, the ΔSPF turned out to be 4, the “SPF in vitro mean” value was determined as 23.61 and the “UV APF” value is reported as 2.85. The “SPF P” value is reported as 21.12 and the “UV APF P” value was 2.74.

Consider `CCOC(=O)C1CSC2=C(CC(C)(C)C/C2=N\c2ccc(-c3ccccc3)cc2)N1` (stereo not drawn) [Formula 19], for which the “SPF Change %” value is recorded as 35%, the ΔSPF was 7, the “SPF in vitro mean” value is reported as 27.12 and the “UV APF” value stood at 4.07. The “SPF P” value is 24.31 and the “UV APF P” value worked out at 3.92.

Regarding `COC(=O)C1CSC2=C(CC(C)(C)C/C2=N\c2ccc(OC)cc2)N1` (stereo not drawn) [Formula 43], the “SPF Change %” value was 4%, the ΔSPF was determined as 1, the “SPF in vitro mean” value came to 20.84 and the “UV APF” value worked out at 4.02. Further, the “SPF P” value amounted to 18.59 and the “UV APF P” value was 3.94.

In the case of `CCOC(=O)C1CSC2=C(CC(C)(C)C/C2=N\c2ccc(/N=N/c3ccccc3)cc2)N1` (stereo not drawn) [Formula 15], the “SPF Change %” value was 41%, the ΔSPF is listed as 8, the “SPF in vitro mean” value stood at 28.31 and the “UV APF” value was 4.52. Moreover, the “SPF P” value came to 27.34 and the “UV APF P” value was found to be 4.49.

In the case of `CCOC(=O)CNC1=C/C(=N/c2ccc(-c3ccccc3)cc2)CC(C)(C)C1` [Formula 31], the “SPF Change %” value is 63%, the ΔSPF came to 13, the “SPF in vitro mean” value was 32.75 and the “UV APF” value is on record as 2.95. The “SPF P” value was 30.52 and the “UV APF P” value amounted to 2.88.

For the compound `COc1ccc(NC2C=C(NCC(=O)O)CC(C)(C)C2)cc1` (stereo not drawn) [Formula 73], the “SPF Change %” value was 61%, the ΔSPF was 12, the “SPF in vitro mean” value was 32.31 and the “UV APF” value is 16.05. For the same compound, the “SPF P” value came out at 27.60 and the “UV APF P” value is on record as 13.08.

With `CCOC(=O)CNC1=C/C(=N/c2ccc(/N=N/c3ccc([N+](=O)[O-])cc3)cc2)CC(C)(C)C1` [Formula 35], the “SPF Change %” value turned out to be 7%, the ΔSPF was 2, the “SPF in vitro mean” value was determined as 21.53 and the “UV APF” value was 17.35. In addition, the “SPF P” value turned out to be 17.94 and the “UV APF P” value was 14.64.
